Laboratory results: ChEMBL document CHEMBL5649169 (ChemMedChem, 2018)

Columns and labels:
[1] = biological target: AP2-associated protein kinase 1 (Homo sapiens) (UniProt Q2M2I8)
[2] = biological target: Aminoacyl tRNA synthase complex-interacting multifunctional protein 1 (Homo sapiens) (UniProt Q12904)
[3] = biological target: Aldehyde dehydrogenase X, mitochondrial (Homo sapiens) (UniProt P30837)
[4] = biological target: Actin-related protein 2/3 complex subunit 5 (Homo sapiens) (UniProt O15511)
[5] = biological target: Bifunctional purine biosynthesis protein ATIC (Homo sapiens) (UniProt P31939)
[6] = biological target: Sarcoplasmic/endoplasmic reticulum calcium ATPase 2 (Homo sapiens) (UniProt P16615)
Sarcoplasmic/endoplasmic reticulum calcium ATPase 2 (Homo sapiens), sequence (P16615 whole entry): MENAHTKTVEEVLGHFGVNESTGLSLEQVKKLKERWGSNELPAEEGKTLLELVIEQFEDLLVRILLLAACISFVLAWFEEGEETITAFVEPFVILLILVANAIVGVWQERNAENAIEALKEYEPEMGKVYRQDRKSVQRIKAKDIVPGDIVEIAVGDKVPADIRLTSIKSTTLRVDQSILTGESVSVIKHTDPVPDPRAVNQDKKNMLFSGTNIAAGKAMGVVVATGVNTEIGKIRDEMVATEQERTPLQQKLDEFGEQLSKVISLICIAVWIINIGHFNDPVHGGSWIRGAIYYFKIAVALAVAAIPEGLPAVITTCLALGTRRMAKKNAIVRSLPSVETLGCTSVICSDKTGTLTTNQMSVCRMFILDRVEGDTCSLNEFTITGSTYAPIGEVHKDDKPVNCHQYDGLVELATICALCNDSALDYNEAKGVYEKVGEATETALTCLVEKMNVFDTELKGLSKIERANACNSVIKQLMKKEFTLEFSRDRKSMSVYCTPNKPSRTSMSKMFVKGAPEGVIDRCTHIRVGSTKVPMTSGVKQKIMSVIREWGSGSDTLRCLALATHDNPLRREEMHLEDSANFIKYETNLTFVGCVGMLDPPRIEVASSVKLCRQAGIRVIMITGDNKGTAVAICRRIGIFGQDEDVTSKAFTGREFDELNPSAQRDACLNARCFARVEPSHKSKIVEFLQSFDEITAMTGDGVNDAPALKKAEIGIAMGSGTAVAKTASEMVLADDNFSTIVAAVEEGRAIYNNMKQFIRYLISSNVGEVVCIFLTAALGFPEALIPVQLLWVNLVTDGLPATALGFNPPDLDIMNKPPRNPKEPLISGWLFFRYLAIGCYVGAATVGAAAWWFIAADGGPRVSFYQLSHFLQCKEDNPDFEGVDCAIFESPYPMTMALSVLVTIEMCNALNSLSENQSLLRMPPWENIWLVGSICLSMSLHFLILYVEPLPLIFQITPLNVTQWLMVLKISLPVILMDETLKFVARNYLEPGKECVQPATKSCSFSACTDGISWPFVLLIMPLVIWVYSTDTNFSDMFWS

[7] = biological target: Pre-mRNA-splicing factor SPF27 (Homo sapiens) (UniProt O75934)
Cyclin-H (Homo sapiens) = Cyclin-H (Homo sapiens) (UniProt P51946)
[8] = biological target: T-complex protein 1 subunit delta (Homo sapiens) (UniProt P50991)
[9] = biological target: Cell division cycle protein 23 homolog (Homo sapiens) (UniProt Q9UJX2)
[10] = biological target: Cell division cycle 7-related protein kinase (Homo sapiens) (UniProt O00311)
Cell division cycle 7-related protein kinase (Homo sapiens), sequence (O00311 whole entry, looked up): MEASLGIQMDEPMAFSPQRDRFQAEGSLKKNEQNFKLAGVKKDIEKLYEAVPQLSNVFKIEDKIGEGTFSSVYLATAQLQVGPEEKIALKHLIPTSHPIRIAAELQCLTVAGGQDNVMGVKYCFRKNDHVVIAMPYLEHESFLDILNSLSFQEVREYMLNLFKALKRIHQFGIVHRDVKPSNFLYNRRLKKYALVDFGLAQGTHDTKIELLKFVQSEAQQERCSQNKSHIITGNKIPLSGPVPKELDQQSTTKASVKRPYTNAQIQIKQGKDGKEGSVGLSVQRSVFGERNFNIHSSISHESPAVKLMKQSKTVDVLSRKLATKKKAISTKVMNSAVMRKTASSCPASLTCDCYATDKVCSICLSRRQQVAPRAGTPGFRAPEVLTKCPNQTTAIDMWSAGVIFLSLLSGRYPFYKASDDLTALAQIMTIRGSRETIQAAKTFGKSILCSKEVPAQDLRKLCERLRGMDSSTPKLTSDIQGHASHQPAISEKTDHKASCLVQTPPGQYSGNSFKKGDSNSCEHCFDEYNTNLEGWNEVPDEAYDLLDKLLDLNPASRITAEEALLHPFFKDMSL

[11] = biological target: Coatomer subunit alpha (Homo sapiens) (UniProt P53621)
Coatomer subunit alpha (Homo sapiens), sequence (P53621 whole entry): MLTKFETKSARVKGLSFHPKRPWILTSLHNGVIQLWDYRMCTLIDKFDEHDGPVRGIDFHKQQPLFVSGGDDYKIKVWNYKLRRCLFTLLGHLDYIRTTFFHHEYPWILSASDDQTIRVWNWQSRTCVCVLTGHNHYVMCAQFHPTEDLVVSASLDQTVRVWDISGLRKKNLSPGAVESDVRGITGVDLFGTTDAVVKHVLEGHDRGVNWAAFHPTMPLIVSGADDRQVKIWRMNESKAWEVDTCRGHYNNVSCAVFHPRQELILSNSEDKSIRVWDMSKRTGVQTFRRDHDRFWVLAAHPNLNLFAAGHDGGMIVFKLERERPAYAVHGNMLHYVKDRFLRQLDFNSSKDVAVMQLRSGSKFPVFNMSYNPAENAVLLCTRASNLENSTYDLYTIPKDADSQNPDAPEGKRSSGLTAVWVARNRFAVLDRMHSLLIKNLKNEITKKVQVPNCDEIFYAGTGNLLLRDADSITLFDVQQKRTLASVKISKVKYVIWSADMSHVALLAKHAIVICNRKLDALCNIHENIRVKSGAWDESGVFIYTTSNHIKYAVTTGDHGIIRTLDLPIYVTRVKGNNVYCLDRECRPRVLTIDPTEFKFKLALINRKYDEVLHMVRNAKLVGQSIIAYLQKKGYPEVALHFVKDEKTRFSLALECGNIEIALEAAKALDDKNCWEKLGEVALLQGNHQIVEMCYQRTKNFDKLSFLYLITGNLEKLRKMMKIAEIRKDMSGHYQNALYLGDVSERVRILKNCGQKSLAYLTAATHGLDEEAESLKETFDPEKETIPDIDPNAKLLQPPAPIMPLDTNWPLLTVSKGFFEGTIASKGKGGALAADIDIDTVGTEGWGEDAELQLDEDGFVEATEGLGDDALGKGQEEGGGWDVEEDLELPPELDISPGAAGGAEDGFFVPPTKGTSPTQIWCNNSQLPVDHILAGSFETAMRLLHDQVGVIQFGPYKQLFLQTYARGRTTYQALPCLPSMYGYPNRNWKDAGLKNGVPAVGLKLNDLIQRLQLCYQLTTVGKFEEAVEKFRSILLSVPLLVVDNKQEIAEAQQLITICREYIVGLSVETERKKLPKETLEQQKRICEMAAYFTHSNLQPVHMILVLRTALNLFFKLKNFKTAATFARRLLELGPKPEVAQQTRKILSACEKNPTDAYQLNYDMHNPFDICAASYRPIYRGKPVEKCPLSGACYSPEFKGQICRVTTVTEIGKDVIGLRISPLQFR

[12] = biological target: Proteasome adapter and scaffold protein ECM29 (Homo sapiens) (UniProt Q5VYK3)
[13] = biological target: Eukaryotic translation initiation factor 2A (Homo sapiens) (UniProt Q9BY44)
[14] = biological target: Tyrosine-protein kinase Fyn (Homo sapiens) (UniProt P06241)
[15] = biological target: Heat shock 70 kDa protein 4 (Homo sapiens) (UniProt P34932)
[16] = biological target: Tyrosine-protein kinase JAK1 (Homo sapiens) (UniProt P23458)
[17] = biological target: Keratin, type I cytoskeletal 18 (Homo sapiens) (UniProt P05783)
[18] = biological target: Mitogen-activated protein kinase 1 (Homo sapiens) (UniProt P28482)
[19] = biological target: Mitogen-activated protein kinase 9 (Homo sapiens) (UniProt P45984)
Mitogen-activated protein kinase 9 (Homo sapiens), sequence (P45984 whole entry, looked up): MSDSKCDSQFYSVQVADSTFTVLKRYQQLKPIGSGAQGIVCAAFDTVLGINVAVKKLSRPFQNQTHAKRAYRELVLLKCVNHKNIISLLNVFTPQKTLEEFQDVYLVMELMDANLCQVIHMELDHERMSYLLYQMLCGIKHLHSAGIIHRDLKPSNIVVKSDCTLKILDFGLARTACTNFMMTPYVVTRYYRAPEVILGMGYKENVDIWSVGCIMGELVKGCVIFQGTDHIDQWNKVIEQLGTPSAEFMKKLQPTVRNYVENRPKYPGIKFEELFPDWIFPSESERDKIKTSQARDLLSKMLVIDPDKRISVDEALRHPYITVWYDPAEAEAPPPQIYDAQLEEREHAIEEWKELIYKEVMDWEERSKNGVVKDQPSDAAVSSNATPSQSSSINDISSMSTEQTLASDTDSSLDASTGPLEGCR

[20] = biological target: DNA replication licensing factor MCM6 (Homo sapiens) (UniProt Q14566)
[21] = biological target: Double-strand break repair protein MRE11 (Homo sapiens) (UniProt P49959)
[22] = biological target: RNA cytidine acetyltransferase (Homo sapiens) (UniProt Q9H0A0)
[23] = biological target: 2-oxoglutarate dehydrogenase complex component E1 (Homo sapiens) (UniProt Q02218)
[24] = biological target: ATP-dependent 6-phosphofructokinase, platelet type (Homo sapiens) (UniProt Q01813)
[25] = biological target: Serine/threonine-protein phosphatase PGAM5, mitochondrial (Homo sapiens) (UniProt Q96HS1)
[26] = biological target: Peroxiredoxin-6 (Homo sapiens) (UniProt P30041)
[27] = biological target: 5'-AMP-activated protein kinase subunit beta-2 (Homo sapiens) (UniProt O43741)
5'-AMP-activated protein kinase subunit beta-2 (Homo sapiens), sequence (O43741 whole entry): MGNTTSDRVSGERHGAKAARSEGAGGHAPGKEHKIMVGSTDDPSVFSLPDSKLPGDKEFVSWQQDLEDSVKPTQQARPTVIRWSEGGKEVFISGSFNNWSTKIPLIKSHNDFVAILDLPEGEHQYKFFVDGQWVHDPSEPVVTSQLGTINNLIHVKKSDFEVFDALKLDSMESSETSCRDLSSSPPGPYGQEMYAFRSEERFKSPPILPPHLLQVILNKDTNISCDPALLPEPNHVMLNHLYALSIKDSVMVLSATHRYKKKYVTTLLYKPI

[28] = biological target: Proteasome Macropain subunit (Homo sapiens) (UniProt P49721)
Proteasome Macropain subunit (Homo sapiens), sequence (P49721 whole entry): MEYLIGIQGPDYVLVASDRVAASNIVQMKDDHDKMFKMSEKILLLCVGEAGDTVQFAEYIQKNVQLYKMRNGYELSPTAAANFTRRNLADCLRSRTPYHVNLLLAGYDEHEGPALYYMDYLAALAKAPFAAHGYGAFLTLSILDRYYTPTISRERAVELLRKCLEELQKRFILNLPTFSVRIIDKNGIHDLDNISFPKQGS

[29] = biological target: Transcriptional regulator protein Pur-beta (Homo sapiens) (UniProt Q96QR8)
[30] = biological target: Aminopeptidase B (Homo sapiens) (UniProt Q9H4A4)
[31] = biological target: Large ribosomal subunit protein eL22 (Homo sapiens) (UniProt P35268)
[32] = biological target: Dolichyl-diphosphooligosaccharide--protein glycosyltransferase subunit 1 (Homo sapiens) (UniProt P04843)
[33] = biological target: Secretory carrier-associated membrane protein 3 (Homo sapiens) (UniProt O14828)
[34] = biological target: Serine/threonine-protein kinase SIK2 (Homo sapiens) (UniProt Q9H0K1)
[35] = biological target: Signal recognition particle 14 kDa protein (Homo sapiens) (UniProt P37108)
[36] = biological target: Serine/arginine-rich splicing factor 6 (Homo sapiens) (UniProt Q13247)
[37] = biological target: Translocon-associated protein subunit alpha (Homo sapiens) (UniProt P43307)
[38] = biological target: Succinate--CoA ligase [ADP/GDP-forming] subunit alpha, mitochondrial (Homo sapiens) (UniProt P53597)
Elongin-C (Homo sapiens) = Elongin-C (Homo sapiens) (UniProt Q15369)
Elongin-C (Homo sapiens), sequence (Q15369 whole entry, looked up): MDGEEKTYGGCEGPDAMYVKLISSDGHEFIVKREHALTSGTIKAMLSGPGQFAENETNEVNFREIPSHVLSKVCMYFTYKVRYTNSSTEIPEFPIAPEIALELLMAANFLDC

[39] = biological target: Mitochondrial import inner membrane translocase subunit TIM44 (Homo sapiens) (UniProt O43615)
[40] = biological target: Transmembrane emp24 domain-containing protein 9 (Homo sapiens) (UniProt Q9BVK6)
[41] = biological target: Tubulin beta-6 chain (Homo sapiens) (UniProt Q9BUF5)
[42] = biological target: Serine/threonine-protein kinase ULK1 (Homo sapiens) (UniProt O75385)
Serine/threonine-protein kinase ULK1 (Homo sapiens), sequence (O75385 whole entry): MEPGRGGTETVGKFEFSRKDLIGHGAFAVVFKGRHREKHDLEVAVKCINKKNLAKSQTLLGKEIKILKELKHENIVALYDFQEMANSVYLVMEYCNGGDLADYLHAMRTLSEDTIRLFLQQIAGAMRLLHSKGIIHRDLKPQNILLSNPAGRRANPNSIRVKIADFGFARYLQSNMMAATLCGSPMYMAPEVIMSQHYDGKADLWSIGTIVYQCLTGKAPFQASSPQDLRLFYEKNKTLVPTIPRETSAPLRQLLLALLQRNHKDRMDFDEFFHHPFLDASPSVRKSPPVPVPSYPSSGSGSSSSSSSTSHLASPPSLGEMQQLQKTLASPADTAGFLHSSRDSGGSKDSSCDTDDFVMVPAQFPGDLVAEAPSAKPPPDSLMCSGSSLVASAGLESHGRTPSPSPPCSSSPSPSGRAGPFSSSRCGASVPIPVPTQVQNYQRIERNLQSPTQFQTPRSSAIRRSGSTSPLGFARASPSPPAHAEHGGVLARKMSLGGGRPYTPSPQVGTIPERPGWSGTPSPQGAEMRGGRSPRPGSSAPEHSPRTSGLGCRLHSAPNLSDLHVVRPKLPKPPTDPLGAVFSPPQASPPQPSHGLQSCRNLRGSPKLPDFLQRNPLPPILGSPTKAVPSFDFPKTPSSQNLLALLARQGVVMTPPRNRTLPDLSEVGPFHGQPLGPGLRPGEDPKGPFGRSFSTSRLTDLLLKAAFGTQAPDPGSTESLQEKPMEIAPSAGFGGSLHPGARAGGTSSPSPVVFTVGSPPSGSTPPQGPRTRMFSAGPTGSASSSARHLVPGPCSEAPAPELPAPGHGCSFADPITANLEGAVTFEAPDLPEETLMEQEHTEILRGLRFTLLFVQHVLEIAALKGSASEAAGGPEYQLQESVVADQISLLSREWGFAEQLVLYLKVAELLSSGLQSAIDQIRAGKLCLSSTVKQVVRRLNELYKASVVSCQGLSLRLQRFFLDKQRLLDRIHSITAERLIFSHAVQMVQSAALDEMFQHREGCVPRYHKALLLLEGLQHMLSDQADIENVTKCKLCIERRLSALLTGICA

[43] = biological target: Cytochrome b-c1 complex subunit 2, mitochondrial (Homo sapiens) (UniProt P22695)
Wolframin (Homo sapiens) = Wolframin (Homo sapiens) (UniProt O76024)
Note: assay method not described here.

## Cc1ccc(C(=O)Nc2cccc(C(F)(F)F)c2)cc1Nc1nc(-c2cccnc2)nc2c1cnn2C
[1]
  ED50: 6.19 µM
[2]
  ED50: 16.5 µM
[3]
  ED50: 0.00943 µM
[4]
  ED50: 3.49 µM
[5]
  ED50: 3.39 µM
[6]
  ED50: 9.67 µM
[7]
  ED50: 0.00189 µM
Cyclin-H (Homo sapiens)
  ED50: 0.0553 µM
[8]
  ED50: 1.63 µM
[9]
  ED50: 0.0535 µM
[10]
  ED50: 0.00127 µM
[11]
  ED50: 0.127 µM
[12]
  ED50: 11 µM
[13]
  ED50: 25.7 µM
[14]
  ED50: 4.1 µM
[15]
  ED50: 3.18 µM
[16]
  ED50: 0.0138 µM
[17]
  ED50: 7.35 µM
[18]
  ED50: 0.027 µM
[19]
  ED50: 0.0588 µM
[20]
  ED50: 11.1 µM
[21]
  ED50: 2.59 µM
[22]
  ED50: 0.000302 µM
[23]
  ED50: 0.0247 µM
[24]
  ED50: 9.49 µM
[25]
  ED50: 0.809 µM
[26]
  ED50: 66.2 µM
[27]
  ED50: 0.0527 µM
[28]
  ED50: 3.31 µM
[29]
  ED50: 0.00796 µM
[30]
  ED50: 0.664 µM
[31]
  ED50: 784 µM
[32]
  ED50: 0.13 µM
[33]
  ED50: 0.00292 µM
[34]
  ED50: 2.14 µM
[35]
  ED50: 20.3 µM
[36]
  ED50: 5.98 µM
[37]
  ED50: 12.2 µM
[38]
  ED50: 0.0563 µM
Elongin-C (Homo sapiens)
  ED50: 122 µM
[39]
  ED50: 0.445 µM
[40]
  ED50: 67.9 µM
[41]
  ED50: 2.53 µM
[42]
  ED50: 3.6 µM
[43]
  ED50: 0.00584 µM
Wolframin (Homo sapiens)
  ED50: 2.67 µM

## Cc1ccc(C(=O)Nc2cccc(C(F)(F)F)c2)cc1Nc1nc(-c2cccnc2)nc2nn(C)cc12
[1]
  ED50: 1560 µM
[2]
  ED50: 0.0574 µM
[3]
  ED50: 0.0072 µM
[4]
  ED50: 2.93 µM
[5]
  ED50: 0.073 µM
[6]
  ED50: 0.0232 µM
[7]
  ED50: 0.954 µM
Cyclin-H (Homo sapiens)
  ED50: 13.2 µM
[8]
  ED50: 26.8 µM
[9]
  ED50: 2.59 µM
[10]
  ED50: 0.869 µM
[11]
  ED50: 0.652 µM
[12]
  ED50: 1.15 µM
[13]
  ED50: 0.0386 µM
[14]
  ED50: 2.07 µM
[15]
  ED50: 0.0777 µM
[16]
  ED50: 0.0748 µM
[17]
  ED50: 0.581 µM
[18]
  ED50: 0.0471 µM
[19]
  ED50: 13.7 µM
[20]
  ED50: 0.343 µM
[21]
  ED50: 14.9 µM
[22]
  ED50: 0.235 µM
[23]
  ED50: 12.5 µM
[24]
  ED50: 0.00571 µM
[25]
  ED50: 7.34 µM
[26]
  ED50: 0.0611 µM
[27]
  ED50: 0.0168 µM
[28]
  ED50: 0.0536 µM
[29]
  ED50: 0.0202 µM
[30]
  ED50: 0.0418 µM
[31]
  ED50: 0.00758 µM
[32]
  ED50: 0.0388 µM
[33]
  ED50: 1.01 µM
[34]
  ED50: 8.18 µM
[35]
  ED50: 3.59 µM
[36]
  ED50: 32.5 µM
[37]
  ED50: 16 µM
[38]
  ED50: 0.877 µM
Elongin-C (Homo sapiens)
  ED50: 0.682 µM
[39]
  ED50: 0.31 µM
[40]
  ED50: 0.00396 µM
[41]
  ED50: 4.67 µM
[42]
  ED50: 0.55 µM
[43]
  ED50: 0.00616 µM
Wolframin (Homo sapiens)
  ED50: 2.66 µM
